# Reference: publication PMC6193938, “Characterization of a novel AICARFT inhibitor which potently elevates ZMP and has anti-tumor activity in murine models” (Scientific Reports, 2018)
# Tests used:
# NCI-H460 (lung) = assay: MS detection of ZMP in cultured cells; type: cell-based, human; conditions: NCI-H460; data not shown
# Experimental: Cells lines were acquired from cell banks, see supplemental material, grown using the cell banks recommended culture conditions (Supplemental Table 3). In some experiments noted “low folate” the cells were washed and grown in folate free RPMI-1640 media (Gibco #27016-021) supplemented with 5 ml 1 M Hepes, 5 ml 100 mM Na pyruvate, 2.5 mg/ml glucose and 10% defined FBS (Hyclone #SH30070) per 500 mL media for 5–7 days to deplete intracellular folate levels prior to the start of the experiment. Where noted, cells were maintained in complete “high folate” RPMI-1640 media (ATCC #30-2001) with 10% defined FBS to contrast with the low folate conditions.
# ZMP was detected in cultured cells via mass spec analysis. Cells were plated in 96-well plates at 25,000 cells per well in 100 µL with either high or low folate RPMI media and incubated overnight at 37 °C with 5% CO2. Cells were treated with inhibitor compounds for 16 hours, 0.5% DMSO final concentration. Growth media was decanted and cells were lysed for 10 min at room temperature with 50 µL per well of 1x Sure Fire Lysis buffer (Perkin Elmer, SureFire kit component). Aliquots (40 µL) of standard or sample were combined in a deep 96-well plate with 160 µL of internal standard solution containing ^13C5-ZMP (custom synthesis) and ^13C5-AICAr (custom synthesis) at 100 ng/mL in 40 mM ammonium acetate, pH 4. 400 µL of dichloromethane was added to each sample. Samples were sealed, vortexed for 5 minutes, and placed in the refrigerator for at least 30 minutes. The samples were centrifuged at 4 °C for 10 minutes at 16,600 g. 75 µL of the aqueous layer were transferred to a clean 96-well plate and seal prior to analysis.
# The LC-MS method utilizes a Shimadzu Prominence 20 A HPLC system connected to an AB Sciex 5500™ or an AB Sciex 6500™ triple quadrupole mass spectrometer. Extracted samples were separated using a Thermo Hypercarb™ Javelin guard column (2.1 × 20 mm, 5 µm) with an injection volume of 15 µL and a flow rate of 1 mL/minute.
# ZMP, AICAr and dUMP were detected using positive ion TurboIonSpray® multiple reaction monitoring mode and the data were processed with AB Sciex MultiQuant™. Back-calculated ZMP concentrations were fit to a four-parameter logistic equation using ACTIVITYBASE 4.0 to determine EC50 values relative to the maximum observed metabolite levels.
# A9 cells = assay: MS detection of ZMP and dUMP in cultured cells; type: cell-based, murine; conditions: A9; data not shown
# Experimental: To mimic human plasma levels, low folate media is traditionally used in which the folate comes only from the defined fetal bovine serum. […] Because LSN3213128 would be dosed in mice on normal diet, cell line screening was performed under standard tissue culture conditions to identify cell lines sensitive to treatment under high folate conditions. In order to compare tissue culture values with tumor levels, an average 4 pL cell volume[36] was used to calculate cellular ZMP concentrations. In MDA-MB-231[…] cells using regular RPMI, the peak intracellular ZMP levels are about 770 μM while in the salvage deficient A9 cells ZMP is 6,500 μM. […] It is not surprising that in vivo in mice on standard chow where folate plasma levels are >10-fold lower than tissue culture that tumor ZMP levels are also lower. […] ZMP was detected in cultured cells via mass spec analysis. Cells were plated in 96-well plates at 25,000 cells per well in 100 μL with either high or low folate RPMI media and incubated overnight at 37 °C with 5% CO2. Cells were treated with inhibitor compounds for 16 hours, 0.5% DMSO final concentration. Growth media was decanted and cells were lysed for 10 min at room temperature with 50 μL per well of 1x Sure Fire Lysis buffer (Perkin Elmer, SureFire kit component). […] Samples were sealed, vortexed for 5 minutes, and placed in the refrigerator for at least 30 minutes. The samples were centrifuged at 4 °C for 10 minutes at 16,600 g. 75 μL of the aqueous layer were transferred to a clean 96-well plate and seal prior to analysis. The LC-MS method utilizes a Shimadzu Prominence 20 A HPLC system connected to an AB Sciex 5500TM or an AB Sciex 6500TM triple quadrupole mass spectrometer. […] […] dUMP were detected using positive ion TurboIonSpray® multiple reaction monitoring mode and the data were processed with AB Sciex MultiQuantTM. Back-calculated ZMP concentrations were fit to a four-parameter logistic equation using ACTIVITYBASE 4.0 to determine EC50 values relative to the maximum observed metabolite levels.
# ATIC (AICARFT) = ATIC (AICARFT) (Homo sapiens, UniProt P31939); assay: Folate dependent enzyme assay, conversion of ZMP to IMP (LC-MS); type: biochemical; conditions: read-out: Positive Control, IC50
# Experimental: (§1) The human MTHFD2 (accession number: NM_006636.3) and MTHFD2L (accession number: NM_001144978.1) cDNAs were synthesized at GenScript. […] Bacterial BL21 (DE3) (Novagen) was used as an expression host, and protein purification is described in supplemental material.
# (§2) Catalytic activity was assayed under the listed reaction conditions using a liquid chromatograph and either fluorescence or mass spectrometric detection as indicated. Reactions were carried out at RT for the reaction times given. The % response was fit to a four-parameter logistic equation using ACTIVITYBASE 4.0 to determine IC50 values.
# SHMT1 = SHMT1 (Homo sapiens, UniProt P34896); assay: Folate dependent enzyme assay, glycine derivatized with Marfey's reagent (HPLC); type: biochemical; conditions: read-out: Positive Control, IC50
# Experimental: as §1, §2
# MTHFD1 = biological target: T1, MTHFD1 (Homo sapiens, UniProt P11586); assay: Folate dependent enzyme assay, NADPH (NAD(P)H-Glo); type: biochemical; conditions: read-out: Positive Control, IC50
# T1 construct: made in house; host or cells: E. coli BL21 (DE3)
# MTHFD2 = MTHFD2 (Homo sapiens, UniProt P13995); assay: Folate dependent enzyme assay, NADH (NAD(P)H-Glo); type: biochemical; conditions: read-out: Positive Control, IC50
# MTHFD2L = MTHFD2L (Homo sapiens, UniProt Q9H903); assay: Folate dependent enzyme assay, NADH (NAD(P)H-Glo); type: biochemical; conditions: read-out: Positive Control, IC50
# [1] = tested on: MDA-MB-231met2 and NCI-H460 tumors; assay: Tumor volume versus tumor ZMP levels, three parameter logistic fit; type: in vivo, mouse; conditions: individual animal data after LSN3213128 treatment, read-out: IC50 of tumor ZMP level for tumor volume
# Description: The levels of total AMPKα and P70S6K are also shown. […] The levels of total AMPKα are also shown. […] Full images and the croppings used in this figure are shown in Supplemental Figures S14–S21.
# Tumor volume decreases with increasing ZMP; however, in these solid tumors there was no evidence for AMPK activation, either using AMPK phosphorylation at T172 or downstream measures at P70S6K T389. Salvage of purines in vivo may explain the absence of purine changes; therefore, we measured levels of hypoxanthine for mouse plasma to be 0.36 ± 0.02 μM (n = 5) which was lower than that reported by Slowiaczek et al.[23]. We also quantified hypoxanthine in human plasma, finding the levels were 2.07 ± 0.01 μM (n = 5), well within the 0.45–34 μM range reported in the literature[19],[23]–[29].
# ATIC (AICARFT), sequence (P31939 whole entry): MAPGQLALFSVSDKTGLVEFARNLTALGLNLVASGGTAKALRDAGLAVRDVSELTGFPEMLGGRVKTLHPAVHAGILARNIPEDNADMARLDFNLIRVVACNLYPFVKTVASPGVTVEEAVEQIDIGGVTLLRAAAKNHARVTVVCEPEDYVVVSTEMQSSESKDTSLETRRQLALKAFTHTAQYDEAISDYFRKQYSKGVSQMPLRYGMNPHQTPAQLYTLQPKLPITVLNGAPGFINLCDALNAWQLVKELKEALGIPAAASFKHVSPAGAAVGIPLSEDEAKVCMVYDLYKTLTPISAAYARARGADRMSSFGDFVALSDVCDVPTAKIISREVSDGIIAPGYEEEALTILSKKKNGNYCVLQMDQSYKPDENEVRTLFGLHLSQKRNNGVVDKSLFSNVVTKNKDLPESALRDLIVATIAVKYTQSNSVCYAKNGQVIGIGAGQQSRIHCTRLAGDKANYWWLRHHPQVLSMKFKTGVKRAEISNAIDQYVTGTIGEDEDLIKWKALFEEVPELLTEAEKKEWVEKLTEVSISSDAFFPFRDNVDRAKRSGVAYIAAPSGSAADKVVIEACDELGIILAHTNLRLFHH
# T1 sequence (P11586 whole entry): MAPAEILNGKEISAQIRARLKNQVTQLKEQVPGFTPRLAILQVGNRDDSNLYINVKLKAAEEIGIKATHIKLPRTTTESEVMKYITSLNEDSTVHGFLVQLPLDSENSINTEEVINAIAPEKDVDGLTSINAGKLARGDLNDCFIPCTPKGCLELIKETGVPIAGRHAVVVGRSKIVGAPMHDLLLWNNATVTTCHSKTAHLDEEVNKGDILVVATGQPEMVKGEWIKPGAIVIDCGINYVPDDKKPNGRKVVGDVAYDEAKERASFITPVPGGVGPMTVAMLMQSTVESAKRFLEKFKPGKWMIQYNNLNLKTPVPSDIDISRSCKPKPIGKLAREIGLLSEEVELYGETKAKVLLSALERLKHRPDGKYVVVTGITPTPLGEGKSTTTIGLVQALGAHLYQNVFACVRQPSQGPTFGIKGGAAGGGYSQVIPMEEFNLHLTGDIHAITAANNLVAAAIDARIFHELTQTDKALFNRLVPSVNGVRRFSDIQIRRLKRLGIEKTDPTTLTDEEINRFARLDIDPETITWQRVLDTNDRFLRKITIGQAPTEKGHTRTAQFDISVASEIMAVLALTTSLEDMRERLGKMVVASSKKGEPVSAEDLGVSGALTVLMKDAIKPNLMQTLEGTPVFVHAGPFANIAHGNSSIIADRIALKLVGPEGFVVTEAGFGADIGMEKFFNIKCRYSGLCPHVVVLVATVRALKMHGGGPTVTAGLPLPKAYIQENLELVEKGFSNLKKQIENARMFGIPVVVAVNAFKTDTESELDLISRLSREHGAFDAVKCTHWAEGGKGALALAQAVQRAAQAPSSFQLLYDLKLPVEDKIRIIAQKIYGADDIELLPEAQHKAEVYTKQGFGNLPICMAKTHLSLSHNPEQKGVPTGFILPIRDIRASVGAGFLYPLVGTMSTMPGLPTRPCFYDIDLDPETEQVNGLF
# SHMT1, sequence (P34896 whole entry): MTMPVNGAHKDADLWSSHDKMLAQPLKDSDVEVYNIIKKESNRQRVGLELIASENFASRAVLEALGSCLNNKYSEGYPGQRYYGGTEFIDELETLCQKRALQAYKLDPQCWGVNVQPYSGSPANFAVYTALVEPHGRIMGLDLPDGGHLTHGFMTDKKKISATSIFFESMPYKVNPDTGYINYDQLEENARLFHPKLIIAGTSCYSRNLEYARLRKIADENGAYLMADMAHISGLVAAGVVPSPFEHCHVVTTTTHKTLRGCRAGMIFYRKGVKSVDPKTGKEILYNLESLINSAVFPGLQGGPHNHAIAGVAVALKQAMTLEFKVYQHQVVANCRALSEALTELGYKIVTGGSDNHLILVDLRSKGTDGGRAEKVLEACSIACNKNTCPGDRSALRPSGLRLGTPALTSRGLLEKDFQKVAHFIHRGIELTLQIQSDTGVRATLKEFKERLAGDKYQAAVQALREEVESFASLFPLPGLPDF
# MTHFD2L, sequence (Q9H903 46-347): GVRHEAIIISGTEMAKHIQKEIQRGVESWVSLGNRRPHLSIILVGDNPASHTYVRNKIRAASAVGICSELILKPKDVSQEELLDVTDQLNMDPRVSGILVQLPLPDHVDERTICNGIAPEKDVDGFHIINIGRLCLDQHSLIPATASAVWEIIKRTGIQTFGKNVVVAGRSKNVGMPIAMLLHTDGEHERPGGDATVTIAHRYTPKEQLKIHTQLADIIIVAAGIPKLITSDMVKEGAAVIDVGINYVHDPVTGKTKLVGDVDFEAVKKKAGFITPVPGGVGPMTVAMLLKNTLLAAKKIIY
# MTHFD2, sequence (P13995 32-350): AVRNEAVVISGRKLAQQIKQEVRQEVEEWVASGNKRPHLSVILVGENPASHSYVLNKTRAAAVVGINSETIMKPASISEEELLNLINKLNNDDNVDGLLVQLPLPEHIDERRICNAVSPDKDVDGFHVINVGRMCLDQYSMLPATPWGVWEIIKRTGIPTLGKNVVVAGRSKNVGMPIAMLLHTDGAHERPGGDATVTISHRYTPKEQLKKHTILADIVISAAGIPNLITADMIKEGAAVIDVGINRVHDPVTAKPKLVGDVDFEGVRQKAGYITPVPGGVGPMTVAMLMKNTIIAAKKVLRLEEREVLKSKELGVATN
smiles,measurement,setting,value
"Nc1nc2c(c(=O)[nH]1)C[C@@H](CCc1ccc(C(=O)N[C@@H](CCC(=O)O)C(=O)O)cc1)CN2 [lometrexol, reference compound]",effect on ZMP,NCI-H460 (lung),inhibits ZMP
same,effect on ZMP,A9 cells,inhibits ZMP
"Nc1nc2[nH]cc(CCCc3ccc(C(=O)N[C@@H](CCC(=O)O)C(=O)O)cc3)c2c(=O)[nH]1 [N-({4-[3-(2-AMINO-4-HYDROXY-7H-PYRROLO[2,3-D]PYRIMIDIN-5-YL)PROPYL]PHENYL}CARBONYL)-L-GLUTAMIC ACID]",IC50,ATIC (AICARFT),9.2 µM
same,IC50,SHMT1,10.1 µM
same,IC50,MTHFD1,5.6 µM
same,IC50,MTHFD2,1.4 µM
same,IC50,MTHFD2L,8.6 µM
"NC(=O)c1ncn([C@@H]2O[C@H](COP(=O)(O)O)[C@@H](O)[C@H]2O)c1N [ZMP, 5-aminoimidazole 4-carboxamide ribonucleotide]",IC50,[1],108 ± 78 µM
